Results taken from paper PMC3953731 (FEBS Open Bio, 2014).
Where “and” joins values, the source holds several entries; their conditions need not be identical. Equal entries are not always repeated.

Tests used:
Ima2p = Ima2p (Saccharomyces cerevisiae, UniProt Q08295); test: Substrate specificity of purified isomaltase; type: biochemical; details: 100 mM substrate (pNPG 5 mM), pH 7, 30 °C; for Specific activities: citrate–potassium phosphate buffer
Ima1p = Ima1p (Saccharomyces cerevisiae, UniProt P53051); test: Substrate specificity of purified isomaltase; type: biochemical; details: 100 mM substrate (pNPG 5 mM), pH 7, 30 °C; for Specific activities: citrate–potassium phosphate buffer
Ima5p = biological target: T1, Ima5p (Saccharomyces cerevisiae, UniProt P40884); test: Substrate specificity of purified isomaltase; type: biochemical; details: 100 mM substrate (pNPG 5 mM), pH 7, 30 °C; for Specific activities: citrate–potassium phosphate buffer
T1 sequence (P40884 1-581): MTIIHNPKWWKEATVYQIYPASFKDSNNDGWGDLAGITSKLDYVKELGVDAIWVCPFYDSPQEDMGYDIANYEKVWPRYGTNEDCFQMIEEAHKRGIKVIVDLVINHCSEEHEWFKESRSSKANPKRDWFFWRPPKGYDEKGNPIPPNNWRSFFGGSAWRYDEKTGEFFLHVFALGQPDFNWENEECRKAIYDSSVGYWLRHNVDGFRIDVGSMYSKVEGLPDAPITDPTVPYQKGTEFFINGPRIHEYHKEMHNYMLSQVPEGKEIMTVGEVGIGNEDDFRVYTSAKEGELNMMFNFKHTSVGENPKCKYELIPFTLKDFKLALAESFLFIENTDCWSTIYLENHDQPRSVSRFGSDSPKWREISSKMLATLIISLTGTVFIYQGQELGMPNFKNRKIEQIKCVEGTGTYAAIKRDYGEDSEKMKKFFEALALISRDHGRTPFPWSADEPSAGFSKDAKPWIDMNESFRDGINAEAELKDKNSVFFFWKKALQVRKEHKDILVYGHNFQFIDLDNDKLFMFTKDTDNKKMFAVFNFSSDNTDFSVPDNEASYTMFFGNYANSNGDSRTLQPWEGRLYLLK

Ima3p = Ima3p (Saccharomyces cerevisiae, UniProt P0CW40); test: Substrate specificity of purified isomaltase; type: biochemical; details: 100 mM substrate (pNPG 5 mM), pH 7, 30 °C; for Specific activities: citrate–potassium phosphate buffer
[1] = Melting temperature by differential scanning fluorimetry; type: physicochemical, Saccharomyces cerevisiae; details: for Tm: mean ± 2 SEM; for decrease of Tm on increase by one pH unit (pH 8): pH 7 to pH 8
[2] = Thermostability assay: time-dependent heat inactivation, half-life; type: biochemical, Saccharomyces cerevisiae; details: pNPG 5 mM, mean ± 2 SEM

Ima3p, sequence (P0CW40 whole entry): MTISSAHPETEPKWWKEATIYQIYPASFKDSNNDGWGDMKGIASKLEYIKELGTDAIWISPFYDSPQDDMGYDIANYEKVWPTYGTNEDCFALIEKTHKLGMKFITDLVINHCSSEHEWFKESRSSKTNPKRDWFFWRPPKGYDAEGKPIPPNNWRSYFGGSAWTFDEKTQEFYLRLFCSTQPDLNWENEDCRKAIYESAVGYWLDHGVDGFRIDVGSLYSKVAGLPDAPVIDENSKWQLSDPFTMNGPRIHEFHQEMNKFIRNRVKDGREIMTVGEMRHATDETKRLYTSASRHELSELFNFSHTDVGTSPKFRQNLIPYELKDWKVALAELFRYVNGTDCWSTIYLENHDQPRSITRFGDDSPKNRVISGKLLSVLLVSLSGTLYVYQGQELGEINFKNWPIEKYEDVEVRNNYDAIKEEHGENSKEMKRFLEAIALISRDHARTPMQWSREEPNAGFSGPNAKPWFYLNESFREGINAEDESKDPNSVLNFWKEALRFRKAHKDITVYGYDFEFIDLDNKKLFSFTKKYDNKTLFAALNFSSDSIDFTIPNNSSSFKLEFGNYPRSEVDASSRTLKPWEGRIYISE
Ima1p, sequence (P53051 whole entry): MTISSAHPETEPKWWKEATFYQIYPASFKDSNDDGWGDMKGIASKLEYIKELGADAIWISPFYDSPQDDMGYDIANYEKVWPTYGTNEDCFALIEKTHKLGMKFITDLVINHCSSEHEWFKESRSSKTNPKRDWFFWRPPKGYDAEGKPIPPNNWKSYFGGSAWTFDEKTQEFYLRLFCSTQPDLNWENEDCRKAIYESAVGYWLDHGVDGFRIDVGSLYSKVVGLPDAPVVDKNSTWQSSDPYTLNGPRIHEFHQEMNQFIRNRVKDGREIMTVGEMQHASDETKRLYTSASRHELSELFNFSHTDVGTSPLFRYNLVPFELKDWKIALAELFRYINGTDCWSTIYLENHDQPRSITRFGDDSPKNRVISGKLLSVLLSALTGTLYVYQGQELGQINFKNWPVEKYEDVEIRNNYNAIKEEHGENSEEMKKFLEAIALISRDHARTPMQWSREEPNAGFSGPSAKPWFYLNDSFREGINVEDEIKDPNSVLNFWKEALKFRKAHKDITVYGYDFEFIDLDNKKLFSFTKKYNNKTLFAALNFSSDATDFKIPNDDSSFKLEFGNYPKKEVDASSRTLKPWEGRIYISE

For `OC[C@H]1O[C@@](CO)(O[C@H]2O[C@H](CO)[C@@H](O)[C@H](O)[C@H]2O)[C@@H](O[C@H]2O[C@H](CO)[C@@H](O)[C@H](O)[C@H]2O)[C@@H]1O` [Melezitose, O-α-D-Glucosyl-(1→3)-β-D-fructosyl-(2→1)-D-glucose], the Specific activities (Ima2p) was 0 µmol/min/mg, the Specific activities (Ima1p) was 0 µmol/min/mg and the Specific activities (Ima5p) was 0 µmol/min/mg. The Specific activities (Ima3p) was 0 µmol/min/mg.

With `OC[C@H]1O[C@H](O[C@@H]2[C@@H](O)[C@H](O)[C@@H](CO)O[C@@H]2O)[C@H](O)[C@@H](O)[C@@H]1O` [Kojibiose, O-α-D-Glucosyl-(1→2)-α-D-glucose] the Specific activities (Ima2p) was 6.9 µmol/min/mg, the “relative activity, velocity on isomaltose set to 100” value (shortened to “relative activity, velocity”) (Ima2p) was 13% and the Specific activities (Ima1p) was 7.7 µmol/min/mg. The “relative activity, velocity” value (Ima1p) was 13%, the Specific activities (Ima5p) was 2.5 µmol/min/mg and the “relative activity, velocity” value (Ima5p) was 4%. For the same molecule, the Specific activities (Ima3p) was 0 µmol/min/mg.

With `O=C(CO)[C@@H](O[C@H]1O[C@H](CO)[C@@H](O)[C@H](O)[C@H]1O)[C@H](O)[C@H](O)CO` [Turanose, O-α-D-Glucosyl-(1→3)-D-fructose] the Specific activities (Ima2p) was 3.5 µmol/min/mg, the “relative activity, velocity” value (Ima2p) was 6% and the Specific activities (Ima1p) was 4.3 µmol/min/mg. The “relative activity, velocity” value (Ima1p) was 7%, the Specific activities (Ima5p) was 1.2 µmol/min/mg and the “relative activity, velocity” value (Ima5p) was 2%. The Specific activities (Ima3p) was 1.8 µmol/min/mg and the “relative activity, velocity” value (Ima3p) was 25%.

With `OC[C@H]1O[C@H](O[C@H]2[C@H](O)[C@@H](O)[C@@H](O[C@H]3[C@H](O)[C@@H](O)C(O)O[C@@H]3CO)O[C@@H]2CO)[C@H](O)[C@@H](O)[C@@H]1O` (stereo partly drawn) [Maltotriose, O-α-D-Glucosyl-(1→4)-α-D-glucosyl-(1→4)-D-glucose] the Specific activities (Ima2p) was 3.4 µmol/min/mg, the “relative activity, velocity” value (Ima2p) was 6% and the “relative activity, velocity” value (Ima2p; listed as maltotriose) was “approx. 5%”. The Specific activities (Ima1p) was 3.5 µmol/min/mg, the “relative activity, velocity” value (Ima1p) was 6% and the “relative activity, velocity” value (Ima1p; listed as maltotriose) was “approx. 5%”. The Specific activities (Ima5p) was 3.4 µmol/min/mg, the “relative activity, velocity” value (Ima5p) was 5% and the “relative activity, velocity” value (Ima5p; listed as maltotriose) was “approx. 5%”. It also gave a Specific activities (Ima3p) of 0 µmol/min/mg.

For `OC[C@H]1O[C@H](O[C@@H]2[C@@H](CO)OC(O)(CO)[C@H]2O)[C@H](O)[C@@H](O)[C@@H]1O` (stereo partly drawn) [Maltulose, O-α-D-Glucosyl-(1→4)-D-fructose], the Specific activities (Ima2p) was 0.53 µmol/min/mg, the “relative activity, velocity” value (Ima2p) was 1% and the Specific activities (Ima1p) was 0 µmol/min/mg. The Specific activities (Ima5p) was 0.36 µmol/min/mg, the “relative activity, velocity” value (Ima5p) was 1% and the Specific activities (Ima3p) was 0 µmol/min/mg.

In the case of `OC[C@H]1O[C@H](O[C@H]2O[C@H](CO)[C@@H](O)[C@H](O)[C@H]2O)[C@H](O)[C@@H](O)[C@@H]1O` [Trehalose, O-α-D-Glucosyl-(1→1)-α-D-glucose], the Specific activities (Ima2p) is reported as 0 µmol/min/mg, the Specific activities (Ima1p) is reported as 0 µmol/min/mg and the Specific activities (Ima5p) is reported as 0 µmol/min/mg. It also gave a Specific activities (Ima3p) of 0 µmol/min/mg.

In the case of `OC[C@H]1O[C@H](O[C@@H]2[C@@H](O)[C@@H](O)O[C@H](CO)[C@H]2O)[C@H](O)[C@@H](O)[C@@H]1O` [Nigerose, O-α-D-Glucosyl-(1→3)-α-D-glucose], the Specific activities (Ima2p) is reported as 6.8 µmol/min/mg, the “relative activity, velocity” value (Ima2p) is reported as 13% and the Specific activities (Ima1p) is reported as 6.5 µmol/min/mg. For the same molecule, the “relative activity, velocity” value (Ima1p) was 11%, the Specific activities (Ima5p) was 4.2 µmol/min/mg and the “relative activity, velocity” value (Ima5p) was 6%. For the same molecule, the Specific activities (Ima3p) was 2.5 µmol/min/mg and the “relative activity, velocity” value (Ima3p) was 35%.

B1: Ima2p: isomaltase from S. cerevisiae encoded by IMA2/YOL157C, His-tagged, purified (protein, UniProt Q08295 1-589, looked up)
Oligo-1,6-glucosidase IMA2: MTISSAHPETEPKWWKEATIYQIYPASFKDSNNDGWGDMKGIASKLEYIKELGADAIWISPFYDSPQDDMGYDIANYEKVWPTYGTNEDCFALIEKTHKLGMKFITDLVINHCSSEHEWFKESRSSKTNPKRDWFFWRPPKGYDAEGKPIPPNNWRSYFGGSAWTFDEKTQEFYLRLFCSTQPDLNWENEDCRKAIYESAVGYWLDHGVDGFRIDVGSLYSKVAGLPDAPVIDENSKWQPSDPFTMNGPRIHEFHQEMNKFIRNRVKDGREIMTVGEMQHATDETKRLYTSASRHELSELFNFSHTDVGTSPKFRQNLIPYELKDWKVALAELFRYVNGTDCWSTIYLENHDQPRSITRFGDDSPKNRVISGKLLSVLLVSLSGTLYVYQGQELGEINFKNWPIEKYEDVEVRNNYDAIKEEHGENSKEMKRFLEAIALISRDHARTPMQWSREEPNAGFSGPNAKPWFYLNESFREGINAEDESKDPNSVLNFWKEALRFRKAHKDITVYGYDFEFIDLDNKKLFSFTKKYDNKTLFAALNFSSDSIDFTIPNNSSSFKLEFGNYPRSEVDASSRTLKPWEGRIYISE
modifications: His tag
With B1 the Tm ([1]; pH 6, DSF) was 55.1 ± 0.2 °C, the Tm ([1]; pH 7, DSF) was 46.2 ± 0.8 °C and the “decrease of Tm on increase by one pH unit (pH 8)” value [1] was 13 °C. For the same molecule, the Tm ([1]; pH 8, DSF) was 33.2 ± 0.6 °C, the t1/2 ([2]; 37 °C) was 27.4 ± 1.6 min and the t1/2 ([2]; 40 °C) was 18.5 ± 1.6 min. The t1/2 ([2]; 42 °C) was 11.2 ± 0.7 min.

B2: Ima3p_L240P: Ima3p variant with L240P mutation (protein, UniProt P0CW40 1-589, looked up, variant L240P)
Oligo-1,6-glucosidase IMA3: MTISSAHPETEPKWWKEATIYQIYPASFKDSNNDGWGDMKGIASKLEYIKELGTDAIWISPFYDSPQDDMGYDIANYEKVWPTYGTNEDCFALIEKTHKLGMKFITDLVINHCSSEHEWFKESRSSKTNPKRDWFFWRPPKGYDAEGKPIPPNNWRSYFGGSAWTFDEKTQEFYLRLFCSTQPDLNWENEDCRKAIYESAVGYWLDHGVDGFRIDVGSLYSKVAGLPDAPVIDENSKWQPSDPFTMNGPRIHEFHQEMNKFIRNRVKDGREIMTVGEMRHATDETKRLYTSASRHELSELFNFSHTDVGTSPKFRQNLIPYELKDWKVALAELFRYVNGTDCWSTIYLENHDQPRSITRFGDDSPKNRVISGKLLSVLLVSLSGTLYVYQGQELGEINFKNWPIEKYEDVEVRNNYDAIKEEHGENSKEMKRFLEAIALISRDHARTPMQWSREEPNAGFSGPNAKPWFYLNESFREGINAEDESKDPNSVLNFWKEALRFRKAHKDITVYGYDFEFIDLDNKKLFSFTKKYDNKTLFAALNFSSDSIDFTIPNNSSSFKLEFGNYPRSEVDASSRTLKPWEGRIYISE
With B2 the “increase of Tm relative to Ima3p” value ([1]; pH 7) was 1 °C, the Tm ([1]; pH 7, DSF) was 39.7 °C and 39.7 ± 0.4 °C and the t1/2 ([2]; 37 °C) was 26.5 ± 2.2 min. For the same molecule, the t1/2 ([2]; 40 °C) was 16.2 ± 1.8 min and the t1/2 ([2]; 42 °C) was 8.5 ± 1.3 min.

B3: Ima1p: isomaltase from S. cerevisiae encoded by IMA1/YGR287C, His-tagged, purified (protein, UniProt P53051 2-589, looked up)
Oligo-1,6-glucosidase IMA1: TISSAHPETEPKWWKEATFYQIYPASFKDSNDDGWGDMKGIASKLEYIKELGADAIWISPFYDSPQDDMGYDIANYEKVWPTYGTNEDCFALIEKTHKLGMKFITDLVINHCSSEHEWFKESRSSKTNPKRDWFFWRPPKGYDAEGKPIPPNNWKSYFGGSAWTFDEKTQEFYLRLFCSTQPDLNWENEDCRKAIYESAVGYWLDHGVDGFRIDVGSLYSKVVGLPDAPVVDKNSTWQSSDPYTLNGPRIHEFHQEMNQFIRNRVKDGREIMTVGEMQHASDETKRLYTSASRHELSELFNFSHTDVGTSPLFRYNLVPFELKDWKIALAELFRYINGTDCWSTIYLENHDQPRSITRFGDDSPKNRVISGKLLSVLLSALTGTLYVYQGQELGQINFKNWPVEKYEDVEIRNNYNAIKEEHGENSEEMKKFLEAIALISRDHARTPMQWSREEPNAGFSGPSAKPWFYLNDSFREGINVEDEIKDPNSVLNFWKEALKFRKAHKDITVYGYDFEFIDLDNKKLFSFTKKYNNKTLFAALNFSSDATDFKIPNDDSSFKLEFGNYPKKEVDASSRTLKPWEGRIYISE
modifications: His tag
For B3, the Tm ([1]; pH 6, DSF) was 55.5 ± 0.6 °C, the Tm ([1]; pH 7, DSF) was 46.6 ± 0.7 °C and the “decrease of Tm on increase by one pH unit (pH 8)” value [1] was 5 °C. For the same molecule, the Tm ([1]; pH 8, DSF) was 41.6 ± 0.2 °C, the t1/2 ([2]; 37 °C) was 26.1 ± 1.7 min and the t1/2 ([2]; 40 °C) was 17.6 ± 1.7 min.
